{"source": "paper PMC10281321", "about": "“Discovery of an effective anti-inflammatory agent for inhibiting the activation of NF-κB” (Journal of Enzyme Inhibition and Medicinal Chemistry, 2023)", "key": {"RAW264.7 cells": {"tested_on": "RAW264.7 cells", "assay": "Reactive oxygen species (ROS) assay in LPS-stimulated RAW264.7 cells", "format": "cell-based", "conditions": "1 μg/mL LPS 24 h, DCFH-DA", "method": "[…]\n(§1) 4.5. NF-κB transcriptional activity assay\n(§2) HEK293T cells were seeded into 96 well plate at a density of 1×10^5 cells per well. After incubated for 24 hours, cells were transfected with NF-κB reporter plasmid at 100 ng/well using lip2000.Six hours later, the medium was replaced by fresh medium containing tested compounds with different concentrations. Then incubated for another hour, TNF-α was added for a final concentration at 10 ng/mL.12 hours later, the cell lysate was collected and the RLU was measured by microplate reader.\n4.6. […]\n(§3) RAW264.7 cells were seeded into 6 well plate at a density of 1.5×10^6 cells per well. After incubated for 24 hours, cells were treated with different concentrations of compound and stimulated by 1 μg/mL LPS after one hour.24 hours later, the supernatant was collected and measured by ELISA kits(MultiScience). […]\nstimulated by 1 μg/mL LPS after one hour.24 hours later, cells were collected and washed by PBS for three times. […] Cell samples were incubated for 20 min at 37°C,and then the fluorescence intensity measured by microplate reader using Ex λ 488 nm and Em λ 525 […]"}, "NF-κB p65 and IκBα": {"tested_on": "NF-κB p65 and IκBα", "assay": "Western blot of LPS-induced phosphorylation of p65 and IκBα in RAW264.7 cells", "format": "cell-based", "conditions": "compound 4, 2, 1 μM 1 h, then LPS 1 μg/mL 30 min, WB", "method": "(§4) RAW264.7 cells were seeded into 6 well plate at a density of 1.5×10^6 per well and incubated at 37 C in 5% CO2 about 24 h. RAW264.7 cells were pretreated with compound (4, 2, 1 μM) for 1 h, then treated with LPS (1 μg/mL) for 30 min. The cells were lysed in 300 μL RIPA cell lysis buffer and the samples were analyzed by WB. […] All antibodies were purchased from ZENBIO. […]"}, "MAPKs (P38, JNK and ERK)": {"tested_on": "MAPKs (P38, JNK and ERK)", "assay": "Western blot of LPS-regulated MAPK signalling activation in RAW264.7 cells", "format": "cell-based", "conditions": "LPS stimulated, WB", "method": "as §4"}, "iNOS and COX-2": {"tested_on": "iNOS and COX-2", "assay": "Western blot of iNOS and COX-2 expression in LPS-stimulated RAW264.7 cells", "format": "cell-based", "conditions": "compound 1 h then LPS 24 h, WB", "method": "RAW264.7 cells were seeded into 6 well plate at a density of 1.5×10^6 per well and incubated at 37 C in 5% CO2 about 24 h. RAW264.7 cells were pretreated with […]\nwere lysed in 300 μL RIPA cell lysis buffer and the samples were analyzed by WB. […] All antibodies were purchased from ZENBIO. […]"}, "NF-κB": {"tested_on": "NF-κB", "assay": "NF-κB transcriptional activity dual-luciferase reporter assay, TNF-α stimulated", "format": "cell-based", "conditions": "HEK293T cells transfected with NF-κB reporter plasmid, stimulated by TNF-α", "method": "as §1\nas §2, with “reader. […]” for “reader.”"}, "[1]": {"assay": "Cytotoxicity by MTT assay", "format": "cell-based"}, "[2]": {"tested_on": "LPS-stimulated RAW264.7 cells", "assay": "NO release inhibition in LPS-stimulated RAW264.7 cells (Griess reagent)", "format": "cell-based", "method": "After incubated for 24 hours, cells were treated with tested compounds for different\nconcentrations(3.125,6.25,12.5,25 and 50μM) for 1 h, and then treated with 1 μg/mL LPS\nfor further 24 h. The supernatants were collected and NO level was measured using\nGriess reagent (Beyotime, China). […]"}, "TNF-α and IL-6": {"tested_on": "TNF-α and IL-6", "assay": "TNF-α and IL-6 assay (ELISA) in LPS-stimulated RAW264.7 cells", "format": "cell-based", "conditions": "1 μg/mL LPS 24 h, supernatant ELISA", "method": "4.6. TNF-α and IL-6 assay\nas §3"}, "[3]": {"tested_on": "RELA (p65) and NFKB1 (p50) subunits of NF-κB", "assay": "Western blot of TNFα-induced nuclear translocation of p65 and p50 in HEK293T cells", "format": "cell-based", "conditions": "compound 4, 2, 1 μM 1 h, then TNF-α 12 h, nuclear protein WB", "method": "HEK293T cells were seeded into 6 well plate at a density of 1.5×10^6 cells per well and incubated at 37°C in 5% CO2 about 24 h. HEK293T cells were pretreated with compound (4, 2, 1 μM) for 1 h, then treated with TNF-α (1 μg/mL) for 12 h. The nuclear protein was extracted by Nuclear protein extraction kit(Beyotime).The samples were analyzed by WB.\nAll antibodies were purchased from ZENBIO. […]"}, "[4]": {"tested_on": "LPS-induced inflammation model of mice", "assay": "LPS-induced inflammation model in vivo", "parameters": "species or system C57BL/6 mice", "method": "All antibodies were purchased from ZENBIO.\n4.9 Establishment of LPS-induced inflammation models in vivo\nThe 30 male C57BL/6 mice weighing 18-22 g were purchased from Animal Department of Anhui Medical University. After adaptive feeding for a week, mice were randomly divided into five groups on average, including the control group, LPS group, compound 51 (5,10,20 mg/kg) +LPS group. Before received 20 mg/kg LPS by intraperitoneal injection, mice were gavaged for three days of compound 51. 6 hours after received LPS, the blood and tissues were taken from mice. The levels of IL-6, TNF-α, SOD and MDA"}, "[5]": {"conditions": "compound 51 5,10,20 mg/kg gavaged, LPS i.p."}, "[6]": {"conditions": "compound 51 5,10,20 mg/kg gavaged, LPS i.p., ELISA"}}, "note": "Entries after “also recorded” stand apart in the source; their conditions may differ."}
{"smiles": "CC(=O)Nc1ccc(NC(=O)c2cc(-c3ccc(N)cc3Cl)cnc2N)cc1", "note": "[Compound 51]", "values": [{"measurement": "level of ROS", "setting": "RAW264.7 cells", "value": "decrease the level of ROS obviously"}, {"measurement": "LPS-induced phosphorylation of IκBα", "setting": "NF-κB p65 and IκBα", "value": "suppressed significantly in a dose dependent manner"}, {"measurement": "LPS-induced phosphorylation of p65", "setting": "NF-κB p65 and IκBα", "value": "suppressed significantly in a dose dependent manner"}, {"measurement": "phosphorylation of ERK", "setting": "MAPKs (P38, JNK and ERK)", "value": "significantly decreased"}, {"measurement": "phosphorylation of JNK", "setting": "MAPKs (P38, JNK and ERK)", "value": "significantly decreased"}, {"measurement": "phosphorylation of P38", "setting": "MAPKs (P38, JNK and ERK)", "value": "significantly decreased"}, {"measurement": "expression of COX-2", "setting": "iNOS and COX-2", "value": "decreased significantly"}, {"measurement": "expression of iNOS", "setting": "iNOS and COX-2", "value": "decreased significantly"}, {"measurement": "IC50", "setting": "NF-κB", "value": "172 ± 11.4", "unit": "nM"}, {"measurement": "IC50", "setting": "NF-κB; Homo sapiens, HEK-293T", "value": 173, "unit": "nM"}, {"measurement": "IC50", "setting": "[1]", "value": "> 50000", "unit": "nM"}, {"measurement": "cytotoxicity (in words)", "setting": "[1]", "value": "did not show obvious cytotoxicity"}, {"measurement": "IC50", "setting": "[2]; Mus musculus, LPS-stimulated RAW264.7 cells, Griess Reagent", "value": "3100 ± 1100", "unit": "nM"}, {"measurement": "anti-inflammatory activity (in words)", "setting": "[2]; SAR summary covering NO release and NF-κB reporter inhibition", "value": "superior anti-inflammatory activity"}, {"measurement": "level of IL-6", "setting": "TNF-α and IL-6", "value": "decreased the levels of TNF-α and IL-6 significantly in a dose dependent manner"}, {"measurement": "level of TNF-α", "setting": "TNF-α and IL-6", "value": "decreased the levels of TNF-α and IL-6 significantly in a dose dependent manner"}, {"measurement": "TNFα-induced nuclear translocation of p50", "setting": "[3]", "value": "inhibited by compound in a dose dependent manner"}, {"measurement": "TNFα-induced nuclear translocation of p65", "setting": "[3]", "value": "inhibited by compound in a dose dependent manner"}, {"measurement": "activation of NF-κB in splenic organ", "setting": "[4]; LPS i.p., spleen WB", "value": "suppressed the activation of NF-κB in splenic organ"}, {"measurement": "injury of spleen (HE staining)", "setting": "[4]; compound 51 5,10,20 mg/kg gavaged three days before LPS i.p.", "value": "alleviated these injury in a dose-dependent manner"}, {"measurement": "gastric distention and splenomegaly", "setting": "[4]; compound 51 5,10,20 mg/kg gavaged three days before LPS i.p., 6 hours after LPS", "value": "these symptoms were relieved"}, {"measurement": "MDA activity in blood", "setting": "[4]; [5]", "value": "reversed their activity; also recorded: decreased MDA activity"}, {"measurement": "SOD activity in blood", "setting": "[4]; [5]", "value": "reversed their activity; also recorded: increased SOD activity"}, {"measurement": "IL-6 level in blood", "setting": "[4]; [6]", "value": "decreased obviously"}, {"measurement": "TNF-α level in blood", "setting": "[4]; [6]", "value": "decreased obviously"}]}
